From patent EP4755885A1 (Shanghai Hansoh Biomedical Co., Ltd., priority 2023, dated 2025)

Columns and labels:
[1] = molecular target: T1, human GLP-1 receptor (Homo sapiens, UniProt P43220); assay: cAMP production in cell line stably transformed with human GLP1 receptor, 30 min co-incubation (HTRF); assay type: cell-based; details: CHO-K1/GLP-1R/CRE-luc cells, stimulation for 0.5 h, read-out: EC50
T1 construct: expressed in transfected cells
Protocol: (§1) The purpose of this assay example is to test the ability of the compound to activate the human GLP-1 receptor on cell surface. The EC50 for stimulated cAMP production after activation characterizes the ability of the compound to activate the human GLP-1 receptor.
In this experiment, the compound and cells were co-incubated for 30 min.
(§2) Frozen cell line CHO-K1/GLP-1R/CRE-luc stably transformed with human GLP1 receptor was removed from a liquid nitrogen tank, and was placed in a 37°C water bath for rapid thawing. The cells were resuspended in DMEM/F12 medium, and after centrifugation, were washed once. The cells were resuspended in an experimental buffer, i.e., DMEM/F12 medium containing 0.1% casein. After centrifugation, cell density was adjusted using the experimental buffer. The cells were plated onto a 384-well plate at a density of 1500 cells/5 µL/well. Then, each well was added with 2.5 µL of IBMX working solution prepared with the buffer, the final concentration of IBMX being 0.5 mM, and 2.5 µL of a serially diluted compound sample (starting from […], 3-fold dilution, 12 concentrations). The plate was centrifuged at 1000 rpm for 1 min, and was stood for incubation at 37°C for 0.5 h. Determination was performed using the Cisbio cAMP - Gs Dynamic kit. cAMP-d2 and anti-cAMP-Eu3+-Cryptate were diluted 18-fold and 20-fold respectively with cAMP Lysis & Detection Buffer, and were respectively mixed homogeneously. Each well was added with 5 µL of diluted cAMP-d2 solution, and the plate was centrifuged at 1000 rpm for 1 min, and shaken for 30 seconds for homogeneous mixing. Then, each well was added with 5 µL of diluted anti-cAMP-Eu3+-Cryptate solution, and the plate was centrifuged at 1000 rpm for 1 min and was incubated in the dark at room temperature for 1 h. HTRF signals were read using the Biotek Synergy H1 microplate reader, the excitation wavelength being 320 nm and the emission wavelengths being 620 nm and 665 nm.
(§3) The signal-to-signal ratio was calculated (665 nm/620 nm * 10,000). Nonlinear fitting between the signal-to-signal ratio and the sample concentration was performed in GraphPad Prism 10 using a four-parameter equation to obtain the EC50 value.

[2] = Pharmacokinetic evaluation in mice, oral administration; assay type: in vivo, Balb/c mice; details: p.o. 5 mg/kg, plasma; for AUC(0-inf) / AUC(0-t) / Cmax / Tmax / MRT inf: mouse, in vivo, po; for MRT inf: read-out: MRT 0-∞
Protocol: Balb/c mice were used as test animals to study the pharmacokinetic behavior of the compound of the present invention in mice (plasma) at a dose of 5 mg/kg administered orally and 1 mg/kg administered intravenously.
Balb/c mice, 3 per group, male.
(§4) Preparation of drug for oral administration: 10%PEG400/10%PG/80% glycine buffer (100 mM glycine, 64 Mm NaOH, […]) buffer.
10 ml of PEG400, 10 ml of PG, and 80 ml of (100 mM glycine, 64 Mm NaOH, pH = 9) were measured into a 100 ml volumetric flask, vortexed, mixed homogeneously, and sonicated to obtain a clear solution.
Single PK: An example compound was weighed into a 4 mL glass bottle. The solution was added, and sonication was performed for 10 min to obtain a colorless clear solution having a concentration of 0.5 mg/mL.
The solution was added, and sonication was performed for 10 min to obtain a colorless clear solution having a concentration of 0.5 mg/mL.
Three Balb/c mice, male, respectively administered p.o. after fasting overnight, at a dose of 5 mg/kg and in an administration volume of 10 mL/kg.
The blood samples were placed in EDTA-K2 anticoagulant tubes and centrifuged at 6000 rpm at 4°C for 6 min to separate plasma, which was stored at -80°C. The mice were fed 4 h after administration.
(§5) • 1) 40 µL of a plasma sample was added with 160 µL of acetonitrile for precipitation, and after mixing, the mixture was centrifuged at 3500 × g for 5 to 20 min. • 2) The supernatant solution after treatment was taken for LC/MS/MS analysis of the concentration of the test compound. The LC/MS/MS analysis instrument was AB Sciex API 4000 Qtrap.
• Liquid phase condition: Shimadzu LC-20AD pump • Chromatographic column: Agilent ZORBAX XDB-C18 (50×2.1 mm, 3.5 µm) Mobile phase: Solution A was 0.1% formic acid aqueous solution, and Solution B was acetonitrile • Flow rate: 0.4 mL/min • Elution time: 0-4.0 min, the eluent was as follows:
Main pharmacokinetic parameters were calculated using WinNonlin 6.1.

[3] = Pharmacokinetic evaluation in rats, oral administration; parameters: species or system SD rats; details: rat, in vivo, p.o. 5 mg/kg, plasma; for MRT inf: read-out: MRT 0-∞
Protocol: SD rats were used as test animals to study the pharmacokinetic behavior of the following example compounds, administered orally at a dose of 5 mg/kg, in the plasma of the rats. SD rats, 3 per group, male. […] An example compound was weighed and added to a 4 mL glass bottle, and the solution was added. […] Sonication was performed for 10 min to obtain a colorless clear solution having a concentration of 0.5 mg/mL. […] The blood samples were placed in EDTA-K2 tubes and centrifuged at 6000 rpm at 4°C for 6 min to separate plasma, which was stored at -80°C. […] • Liquid phase conditions: Shimadzu LC-20AD pump • Mass spectrometry conditions: AB Sciex API 4000 mass spectrometer • Chromatographic column: phenomenex Gemiu 5 um C18 50 × 4.6 mm • Mobile phase: Solution A was 0.1% formic acid aqueous solution, and Solution B was methanol • Flow rate: 1.0 mL/min • Elution time: 0-4.0 min, the eluent was as follows: […] The results of the rat pharmacokinetic experiment are shown in the table below: Table 5: Pharmacokinetic parameters of oral administration of the compound of the present invention in rats

[4] = molecular target: T1, human GLP-1 receptor; assay: cAMP production in cell line stably transformed with human GLP1 receptor, 2 h co-incubation (HTRF); assay type: cell-based; details: CHO-K1/GLP-1R/CRE-luc cells, stimulation for 2 h, read-out: EC50
Protocol: as §1
In this experiment, the compound and cells were co-incubated for 2 h.
as §2, with “for 2” for “for 0.5”
as §3

[5] = Pharmacokinetic evaluation in beagles, oral administration; assay type: in vivo; details: dog, po, p.o. 2 mg/kg, plasma
Protocol: Beagles were used as test animals to study the pharmacokinetic behavior of the compound of the present invention, administered orally at a dose of 2 mg/kg, in beagles (plasma).
Beagles, 3 per group, male.
as §4
(§6) Single PK: The compound of the present invention was weighed into a 100 mL glass bottle, and the solution was added. The pH was first adjusted with 1 M NaOH until the compound dissolves to obtain a clear solution, and then the pH was readjusted to pH 9.0-9.5 with 1 M HCl. Sonication was performed for 10 min to obtain a colorless clear solution having a concentration of 0.4 mg/mL.
Three beagles, male, respectively administered p.o. after fasting overnight, at a dose of 2 mg/kg and in an administration volume of 5 mL/kg.
(§7) Blood collection: 0.3 mL of blood was collected from the forelimb vein of the beagles before administration and at 0.25, 0.5, 1, 2, 4, 6, 8, and 24 h after administration. The blood samples were placed in EDTA-K2 anticoagulant tubes and centrifuged at 6000 rpm at 4°C for 6 min to separate plasma, which was stored at -80°C. The beagles were fed 4 h after administration.
as §5
(§8) • Liquid phase condition: Shimadzu LC-20AD pump • Chromatographic column: Agilent ZORBAX XDB-C18 (50×2.1 mm, 3.5 µm) Mobile phase: Solution A was 0.1% formic acid aqueous solution, and Solution B was acetonitrile • Flow rate: 0.4 mL/min • Elution time: 0-4.0 min, the eluent was as follows: […]

[6] = Pharmacokinetic evaluation in Macaca fascicularis monkeys, oral administration; assay type: in vivo; details: cynomolgus monkey, p.o. 5 mg/kg, plasma
Protocol: Macaca fascicularis monkeys were used as test animals to study the pharmacokinetic behavior of the compound of the present invention, administered orally at a dose of 5 mg/kg, in Macaca fascicularis monkeys (plasma).
Macaca fascicularis monkeys, 3 per group, male.
as §4
as §6, with “1” for “0.4”
Three Macaca fascicularis monkeys, male, respectively administered p.o. after fasting overnight, at a dose of 5 mg/kg and in an administration volume of 5 mL/kg.
as §7, with “Macaca fascicularis monkeys” for “beagles”
as §5, §8

[7] = not marked single PK (cassette PK)

T1 sequence (P43220 24-463): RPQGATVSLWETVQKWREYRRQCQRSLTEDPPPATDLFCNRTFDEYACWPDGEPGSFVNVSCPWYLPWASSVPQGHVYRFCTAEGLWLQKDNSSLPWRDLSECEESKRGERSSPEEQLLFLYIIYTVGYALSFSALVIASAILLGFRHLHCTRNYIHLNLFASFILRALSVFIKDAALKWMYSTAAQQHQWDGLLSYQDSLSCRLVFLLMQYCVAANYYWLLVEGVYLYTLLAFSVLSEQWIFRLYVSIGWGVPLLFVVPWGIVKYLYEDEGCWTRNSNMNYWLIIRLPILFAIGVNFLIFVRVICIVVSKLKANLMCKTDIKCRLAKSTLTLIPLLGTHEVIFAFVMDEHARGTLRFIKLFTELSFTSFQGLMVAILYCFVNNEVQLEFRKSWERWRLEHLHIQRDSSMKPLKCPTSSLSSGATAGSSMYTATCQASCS

Row | SMILES | EC50 [1] [nM] | AUC(0-inf) [3] [ng·h/mL] | AUC(0-t) [3] [ng·h/mL] | Cmax [3] [ng/mL] | Tmax [3] [h] | half-life [3] [h] | MRT inf [3] [h] | AUC(0-inf) ([2]; single PK) [ng·h/mL] | AUC(0-t) ([2]; single PK) [ng·h/mL] | Cmax ([2]; single PK) [ng/mL] | Tmax ([2]; single PK) [h] | MRT inf ([2]; single PK) [h] | tl/2 ([2]; single PK) [h] | further results
1 | Cc1cc(-n2nc3c(c2-n2ccn(-c4ccc(N=S(C)(C)=O)cc4F)c2=O)[C@H](C)N(C(=O)c2cc4cc([C@H]5CCOC(C)(C)C5)ccc4n2[C@@]2(c4noc(=O)[nH]4)C[C@@H]2C)CC3)cc(C)c1F [Example 1] | 0.37 |  |  |  |  |  |  |  |  |  |  |  |  | 
2 | Cc1cc(-n2nc3c(c2-n2ccn(-c4ccc5c(c4)CCc4nnc(C)n4-5)c2=O)[C@H](C)N(C(=O)c2cc4cc([C@H]5CCOC(C)(C)C5)ccc4n2[C@@]2(c4noc(=O)[nH]4)C[C@@H]2C)CC3)cc(C)c1F [Example 8] | 0.51 |  |  |  |  |  |  |  |  |  |  |  |  | 
3 | Cc1cc(-n2nc3c(c2-n2ccn(-c4ccc5c(c4F)C4(CC4)C(=O)N5C)c2=O)[C@H](C)N(C(=O)c2cc4cc([C@H]5CCOC(C)(C)C5)ccc4n2[C@@]2(c4noc(=O)[nH]4)C[C@@H]2C)CC3)cc(C)c1F [Example 15] | 0.32 |  |  |  |  |  |  |  |  |  |  |  |  | 
4 | Cc1cc(-n2nc3c(c2-n2ccn(-c4ccc5c(cnn5C5CC5)c4F)c2=O)[C@H](C)N(C(=O)c2cc4cc([C@H]5CCOC(C)(C)C5)ccc4n2[C@@]2(c4noc(=O)[nH]4)C[C@@H]2C)CC3)cc(C)c1F [Example 25] |  | 37300 | 28500 | 1960 | 6 | 10.5 | 16.4 |  |  |  |  |  |  | AUC(0-inf) [2, 7]: 39000 ng·h/mL; AUC(0-t) [2, 7]: 30500 ng·h/mL; Cmax [2, 7]: 2060 ng/mL; Tmax [2, 7]: 2 h; MRT inf [2, 7]: 15.2 h; tl/2 [2, 7]: 10.7 h
5 | Cc1cc(-n2nc3c(c2-n2ccn(-c4ccc5c6c(nn5C)CCCOc46)c2=O)[C@H](C)N(C(=O)c2cc4cc([C@H]5CCOC(C)(C)C5)ccc4n2[C@@]2(c4noc(=O)[nH]4)C[C@@H]2C)CC3)cc(C)c1F [Example 35] |  | 14100 | 12400 | 1110 | 4.7 | 7.2 | 11.5 | 41000 | 32900 | 3070 | 1.2 | 13.9 | 10.3 | 
6 | Cc1cc(-n2nc3c(c2-n2ccn(-c4ccc5c(cnn5C5CC5)c4F)c2=O)[C@H](C)N(C(=O)c2cc4cc([C@H]5CCOC(C)(C)C5)ccc4n2[C@@]2(c4noc(=O)[nH]4)[C@@H]4COC[C@@H]42)CC3)cc(C)c1F [Example 65-1] |  |  |  |  |  |  |  | 10900 | 10600 | 1220 | 2.7 | 6.5 | 4.8 | EC50 [4]: 0.06 nM; AUC(0-inf) [5]: 43900 ng·h/mL; AUC(0-t) at 24 h [5]: 41000 ng·h/mL; half-life [5]: 5.9 h; Cmax ([5]; read-out: Cmax): 4360 ng/mL; MRT inf ([5]; read-out: MRT 0-∞): 8.1 h; Tmax ([5]; read-out: tmax): 2.8 h; AUC(0-inf) [6]: 30800 ng·h/mL; AUC(0-t) [6]: 29700 ng·h/mL; Cmax [6]: 4460 ng/mL; Tmax [6]: 2 h; half-life [6]: 5.6 h; MRT inf ([6]; read-out: MRT 0-∞): 7.5 h
